Data as given in PMC9369311, “Examination of Intracellular GPCR-Mediated Signaling with High Temporal Resolution” (International Journal of Molecular Sciences, 2022).
Blank lines part the entries; values can stand above or below the compound they belong to.

Legend:
[1] = biological target: T1, DmOctβ1 receptor (Drosophila melanogaster, UniProt Q9VCZ3); assay: Stopped-flow flash photolysis of caged octopamine in Fluo-4-loaded flpTM-DmOctβ1 cells; assay type: cell-based; settings: for response time after UV-flash: 10 µM caged compound, 50 ms flash, 100 µM IBMX
T1 construct: expressed in transfected cells; host or cells: flpTM cells (HEK293 flpIn, Invitrogen #750-07, carrying the CNGA2 variant)
T1 sequence (Q9VCZ3 1-508): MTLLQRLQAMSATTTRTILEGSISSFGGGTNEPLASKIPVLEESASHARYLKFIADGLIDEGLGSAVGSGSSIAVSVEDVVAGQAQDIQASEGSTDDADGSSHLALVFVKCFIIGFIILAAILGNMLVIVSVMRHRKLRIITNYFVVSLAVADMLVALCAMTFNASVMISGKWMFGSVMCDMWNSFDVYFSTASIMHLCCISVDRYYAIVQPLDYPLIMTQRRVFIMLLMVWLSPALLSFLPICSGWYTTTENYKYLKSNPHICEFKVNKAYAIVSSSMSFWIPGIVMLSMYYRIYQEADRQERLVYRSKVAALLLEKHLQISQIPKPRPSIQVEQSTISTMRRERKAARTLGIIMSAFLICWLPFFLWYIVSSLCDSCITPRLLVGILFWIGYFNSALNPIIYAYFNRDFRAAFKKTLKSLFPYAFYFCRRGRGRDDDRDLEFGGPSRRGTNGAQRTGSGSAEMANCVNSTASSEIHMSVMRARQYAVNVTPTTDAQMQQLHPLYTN
Description: Neutral density filters that regulate the transmission of light (5%, 25%, 50%, 80%, 100%) were installed, allowing application of different light intensities.
In the previous stopped-flow experiments, we initiated the DmOctβ1 receptor-activated reaction cascade by mixing cells with increasing concentrations of octopamine. Now, we used a similar strategy but substituted the biogenic amine for a constant concentration of octopamine fused to a coumarin-based cage group ({8-[bis(carboxymethyl)aminomethyl]-6-bromo-7-hydroxycoumarin-4-yl}methoxycarbon-yl; BBHCMOC-octopamine) from which the biologically active octopamine was released by light flashes. The Fluo-4-loaded flpTM-DmOctβ1 cells were mixed with a final concentration of 10 µM BBHCMOC-octopamine in the cuvette of the stopped-flow apparatus. After 2 s, a UV-flash was triggered for 50 ms and the fluorescence intensities were recorded. The time when triggering the light flash was defined as time point t = 0. Different light intensities were successively applied (5%, 25%, 50%, 80%, 100% intensity). To avoid fluctuations in the [cAMP]i due to cell-endogenous phosphodiesterase activity, the experiments were performed in the presence of 100 µM IBMX. Figure 7 summarizes the results that were obtained with BBHCMOC-octopamine.
For the photolysis of the caged compounds with ultraviolet (UV)-light, a Xe-flash lamp (JML-C2; Rapp Opto Electronics, Wedel, Germany) was coupled to the cuvette via an UV-light permeable light guide (Schott). A UV-2 interference filter was placed between the Xe-flash lamp and light guide to select for the UV-light needed for the photolysis of the caged compounds. Additionally, it prevents the photomultiplier from being hit by light that is able to pass the emission filter. […] To maximize the detection of the emission light, a test solution containing 50 nM of fluorescein in ES was added to the cuvette and the light guide was fixed to the Xe/Hg-lamp at a position where the photomultiplier detected maximal intensity.

[2] = in vitro; read-out: dissociation constant (Kd) for Ca2+; cited from earlier work
[3] = test system: CNG channel (A2 homomer); settings: read-out: EC50 for opening the CNG channel, electrophysiological experiments, ref Ludwig et al., 1990; cited from earlier work

response time after UV-flash ([1]; 5% light intensity): about 16 s | response time after UV-flash ([1]; 100% light intensity): 6 s and ≈ 6 s | octopamine released by photolysis ([1]; from 10 µM BBHCMOC-octopamine, based on quantum yield): approximately 1 µM
SMILES: O=C(O)CN(CC(=O)O)Cc1c(O)c(Br)cc2c(COC(=O)NCC(O)c3ccc(O)cc3)cc(=O)oc12 (centres unmarked) [BBHCMOC-octopamine]

SMILES: Cc1ccc(N(CC(=O)O)CC(=O)O)c(OCCOc2cc(-c3c4cc(F)c(=O)cc-4oc4cc(O)c(F)cc34)ccc2N(CC(=O)O)CC(=O)O)c1 [Fluo-4]
Kd [2]: 0.345 µM

SMILES: Nc1ncnc2c1ncn2[C@@H]1O[C@@H]2COP(=O)(O)O[C@H]2[C@H]1O [cAMP, cyclic adenosine monophosphate]
EC50 [3]: ~2 µM
